The values below come from patent US20230391748A1, “BICYCLIC INHIBITORS OF IRAK” (priority 2022, published 2023).

The target in one experiment is IRAK4 (Homo sapiens (Human), UniProt Q9NWZ3). Nature of the experiment: IRAK4 ADP-Glo Assay. The experiment is classed as biochemical. As to conditions: MBP substrate. As for the experimental part: The ADP-Glo™ reagents were thawed at ambient temperature. The Kinase Detection Reagent was prepared by mixing kinase detection buffer with the lyophilized kinase detection substrate, and set aside.
A stock volume of 5× Reaction Kinase Buffer was made with a final concentration of 100 mM MgCl2, 200 mM Tris-HCl, and 0.5 mg/ml of BSA, in distilled H2O with a final pH7.4. A 2× working stock volume of Reaction Kinase Buffer was made containing a final concentration of 100 μM DTT.
The components of IRAK4 Enzyme were thawed on ice. Diluted IRAK4 in 1× Kinase Reaction Buffer (diluted from 2× buffer) was prepared at 5.0 ng/μl.
Then diluted 1:5 in 2× Reaction Buffer in a 96 well plate. 1.0 μl was transferred to a 384 well plate in duplicate. […] 1 μl of 1 mg/ml stock solution of MBP substrate was added NOTE: MBP can be combined with ATP mix with equal volume and then added at 2 μl/well. Final reaction volume was 5 μl.
The plate was centrifuged and the reaction mixture was incubated at room temperature for 60 minutes or at 30° C. for 30 minutes.
The reaction was terminated and the remaining ATP was depleted by adding 5 μl of ADP-Glo™ Reagent. The 384-well plate was centrifuged and then the reaction mixture was incubated for another 40 minutes at ambient temperature.
10 μl of the Kinase Detection Reagent was added. The plate was centrifuged and then the reaction mixture was incubated for another 30 minutes at ambient temperature.
The 384-well reaction plate was read using the WALLAC plate reader (Luminescence 0.1s).
(In general: ADP-Glo turns the ADP formed in a reaction into a luminescent signal.)

For another experiment, the system named is TNF-α in human PBMCs. Nature of the experiment: R848-induced TNF-α in human PBMCs Assay. The experiment is classed as cell-based. As to conditions: Homo sapiens, PBMC, 4 h, read-out: TNFα (PBMC, R848) (IC50, μM). Here is the method:
R848-induced TNF-α in human PBMCs Assay
100 μL/well PBMCs (200K/well) were seeded in 96-well flat-bottom tissue culture plates. […] 100 μL/well 2× compound was added to the PBMC in the tissue culture plates. […] The cells were stimulated with R848 for an additional 4 hours at 37° C., 5% CO2. The supernatant (100 μl/well) was harvested to measure TNF-α by ELISA. […] The chemiluminescence values were entered into Athena (Rigel) for curve fitting, EC50 calculation, and database storage.
(§1) TNF-α ELISA was performed according to the vendor protocol, using 96 Well Flat-Bottom, MaxiSorp Black Immuno plates and 100 μL/well of supernatant. The plates were developed using 100 μL/well of Super Signal ELISA Pico Chemiluminescent Substrate. The plates were read with a luminometer, and the chemiluminescence values were entered into Athena (Rigel) for curve fitting, EC50 calculation, and database storage.

For a further experiment, the system named is IL23p19 in THP-1 Cells. Nature of the experiment: LPS Induced IL23p19 in THP-1 Cells (with IFNγ Primed) Assay. The experiment is classed as cell-based. As to conditions: Homo sapiens, THP-1, 18 h, read-out: IL23 (THP, LPS) (IC50, μM). Here is the method: LPS Induced IL23p19 in THP-1 Cells (with IFNγ Primed) Assay
On day 1, 50K/well THP-1 cells were seeded and primed with IFNγ (50 ng/mL) in 384-well plates for about 18 hours in RPMI media with 10% FBS. […] 50 μL/well 2× compound was added to 50 μL/well THP-1 cells (with IFNγ primed) in duplicate in 384 well tissue culture plates. […] Day 3, after stimulation for 18 hours at 37° C., 5% CO2, the assay plate was centrifuged and 70 μL/well supernatant was harvested. IL-23p19 protein in 70 µL/well of supernatant was measured by sandwich ELISA, and 25 μl/well Cell Titer Glo reagent was added to the remaining cells to measure compound toxicity.
Maxisorp immuno ELISA plates were pre-coated with 25 μL/well of anti-IL-23p19 capture antibody (2.5 ug/mL) in PBS overnight at room temperature. […] 25 μL/well of biotin labeled anti-IL-12(p40/p70) detection antibody (100 ng/mL) in PBS with 1% BSA was added and the plates were incubated at room temperature for 2 hours with shaking. […] The plates were read with a luminometer, and the chemiluminescence values were entered into Athena (Rigel) for curve fitting, EC50 calculation, and database storage.

The subject of experiment [1] is TNF-α in Human Primary Monocyte-Derived Dendritic Cells. Nature of the experiment: Gardiquimod-Induced TNF-α in Human Primary Monocyte-Derived Dendritic Cells. In kind it is cell-based. As to conditions: Dendritic cell, IFNγ-primed monocyte-derived dendritic cells, 4 μg/ml Gardiquimod, 6 hours, TNF-α ELISA, read-out: TNFα (DC, GARD) (IC50). Here is the method:
Gardiquimod-Induced TNF-α in Human Primary Monocyte-Derived Dendritic Cells
After 2 hours, the media including floating cells was carefully removed and 12 ml of fresh RPMI media (10% FBS) containing GM-CSF (100 ng/ml) and IL-4 (20 ng/ml) were added to the adherent monocytes. The monocytes were allowed to differentiate for 7 days at 37° C., 5% CO2 for 7 days, supplementing with fresh GM-CSF and IL-4 after 3 days. The differentiated dendritic cells (DC) were harvested by centrifugation (1200 rpm/5 min). The DCs were primed at 37° C., 5% CO2 for 24 hours with 50 ng/ml IFN-γ (1000 U/ml) at 50K/well in 100 μl/well of fresh RPMI media (10% FBS) in a white clear bottom 96 well plate.
The primed DCs were pre-incubated with test compound for 1 hour at 37° C., 5% CO2 by adding 100 μl of RPMI media containing 2× concentrated test compound per well (0.5% final DMSO concentration).
DCs were stimulated with Gardiquimod (10 μl per well of 20× concentrated Gardiquimod solution in RPMI media to give a final concentration of 4 μg/ml) at 37° C., 5% CO2 for an additional 6 hours. The supernatant (100 μl/well) was harvested to measure TNF-α by ELISA. […] The chemiluminescence values were entered into Athena (Rigel) for curve fitting, EC50 calculation, and database storage.
as §1

SMILES strings stand for the structures.

Sequence of IRAK4 (Q9NWZ3 whole entry): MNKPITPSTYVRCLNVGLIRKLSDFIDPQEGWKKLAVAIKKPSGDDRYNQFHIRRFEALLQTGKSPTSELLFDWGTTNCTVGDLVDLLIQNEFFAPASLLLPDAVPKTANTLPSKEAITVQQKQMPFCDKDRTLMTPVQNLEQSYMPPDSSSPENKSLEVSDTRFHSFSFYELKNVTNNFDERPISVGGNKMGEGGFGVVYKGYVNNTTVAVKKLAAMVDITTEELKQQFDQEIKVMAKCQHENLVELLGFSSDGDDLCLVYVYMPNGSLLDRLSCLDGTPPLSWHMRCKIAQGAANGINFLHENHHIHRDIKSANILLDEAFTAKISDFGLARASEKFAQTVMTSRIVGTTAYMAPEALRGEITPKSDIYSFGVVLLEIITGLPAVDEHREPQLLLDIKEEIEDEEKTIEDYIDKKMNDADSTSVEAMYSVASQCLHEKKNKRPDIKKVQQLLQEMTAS

For orientation: IC50 means the midpoint of a concentration-inhibition curve. `CC(C)Oc1cc2c(OC[C@@H]3CCC(=O)N3)ncc(C#CC3(O)CCNCC3)c2cc1C(N)=O` [Compound I-13, (S)-4-((4-hydroxypiperidin-4-yl)ethynyl)-7-isopropoxy-1-((5-oxopyrrolidin-2-yl)methoxy)isoquinoline-6-carboxamide]: the IC50 is 14.9 nM against IRAK4, 4.67 µM in the experiment with TNF-α in human PBMCs, 4.64 µM in the experiment with IL23p19 in THP-1 Cells and 3500 nM in experiment [1].

Regarding `CC(C)Oc1cc2c(OC[C@@H]3CCC(=O)N3)ncc(C#CC3CCN(C(=O)OC(C)(C)C)CC3)c2cc1C(N)=O` [Compound I-15, tert-butyl (S)-4-((6-carbamoyl-7-isopropoxy-1-((5-oxopyrrolidin-2-yl)methoxy)isoquinolin-4-yl)ethynyl)piperidine-1-carboxylate], the IC50 against IRAK4 was found to be 15.9 nM; with TNF-α in human PBMCs, 0.0874 µM; in the experiment on IL23p19 in THP-1 Cells, 0.525 µM; in experiment [1], 71.9 nM.

In the case of `COC(=O)N1CCC(C#Cc2cnc(OC[C@@H]3CCC(=O)N3)c3cc(OC(C)C)c(C(N)=O)cc23)CC1` [Compound I-16, methyl (S)-4-((6-carbamoyl-7-isopropoxy-1-((5-oxopyrrolidin-2-yl)methoxy)isoquinolin-4-yl)ethynyl)piperidine-1-carboxylate], the IC50 is 11.9 nM against IRAK4, 0.0474 µM in the experiment with TNF-α in human PBMCs, 0.0886 µM in the experiment with IL23p19 in THP-1 Cells and 245 nM in experiment [1].

Consider `CC(C)Oc1cc2c(OC[C@@H]3CCC(=O)N3)ncc(C#CC3CCNCC3)c2cc1C(N)=O` [Compound I-17, (S)-7-isopropoxy-1-((5-oxopyrrolidin-2-yl)methoxy)-4-(piperidin-4-ylethynyl)isoquinoline-6-carboxamide], for which the IC50 against IRAK4 is 1.7 nM; with TNF-α in human PBMCs it was 1.33 µM; in the experiment with IL23p19 in THP-1 Cells, 11.2 µM; in experiment [1], 17200 nM.

Take `CC(C)Oc1cc2c(OC[C@@H]3CCC(=O)N3)ncc(C#CC3CCN(C)CC3)c2cc1C(N)=O` [Compound I-18, (S)-7-isopropoxy-4-((1-methylpiperidin-4-yl)ethynyl)-1-((5-oxopyrrolidin-2-yl)methoxy)isoquinoline-6-carboxamide]: the IC50 against IRAK4 was 2.3 nM; in the experiment on TNF-α in human PBMCs it was 0.306 µM; with IL23p19 in THP-1 Cells, 0.606 µM; in experiment [1], 203 nM.

In the case of `CCO[C@H]1CC[C@H](C#Cc2cnc(OC[C@@H]3CCC(=O)N3)c3cc(OC(C)C)c(C(N)=O)cc23)CC1` [Compound I-20, 4-(((1r,4S)-4-ethoxycyclohexyl)ethynyl)-7-isopropoxy-1-(((S)-5-oxopyrrolidin-2-yl)methoxy)isoquinoline-6-carboxamide], the IC50 on IRAK4 is 7 nM; with TNF-α in human PBMCs it was 0.0688 µM; in the experiment with IL23p19 in THP-1 Cells, 0.11 µM; in experiment [1] it was 63.4 nM.

In the case of `CCO[C@H]1CC[C@@H](C#Cc2cnc(OC[C@@H]3CCC(=O)N3)c3cc(OC(C)C)c(C(N)=O)cc23)CC1` [Compound I-21, 4-((cis-4-ethoxycyclohexyl)ethynyl)-7-isopropoxy-1-(((S)-5-oxopyrrolidin-2-yl)methoxy)isoquinoline-6-carboxamide], the IC50 against IRAK4 is 5.6 nM; in the experiment with TNF-α in human PBMCs, 0.104 µM; in the experiment with IL23p19 in THP-1 Cells, 0.194 µM; in experiment [1], 101 nM.

`CC(C)Oc1cc2c(OC[C@@H]3CCC(=O)N3)ncc(C#C[C@H]3CC[C@](C)(O)CC3)c2cc1C(N)=O` [Compound I-22, 4-(((1r,4S)-4-hydroxy-4-methylcyclohexyl)ethynyl)-7-isopropoxy-1-(((S)-5-oxopyrrolidin-2-yl)methoxy)isoquinoline-6-carboxamide]: the IC50 against IRAK4 came to 12.3 nM; with TNF-α in human PBMCs it was 0.049 µM; with IL23p19 in THP-1 Cells it was 0.208 µM; in experiment [1], 72.9 nM.

In the case of `CC(C)Oc1cc2c(OC[C@@H]3CCC(=O)N3)ncc(C#C[C@H]3CC[C@@](C)(O)CC3)c2cc1C(N)=O` [Compound I-23, 4-(((1s,4R)-4-hydroxy-4-methylcyclohexyl)ethynyl)-7-isopropoxy-1-(((S)-5-oxopyrrolidin-2-yl)methoxy)isoquinoline-6-carboxamide], the IC50 on IRAK4 is 11.4 nM; in the experiment on TNF-α in human PBMCs it was 2.12 µM; with IL23p19 in THP-1 Cells, 0.712 µM; in experiment [1] it was 566 nM.
